Assay results published in the supplement of paper PMC4862054.

Experiments:
BT-549 [1] = experiment: normalised response (% of control), CellTiter-Glo; higher = more viable cells (100 = DMSO, 0 = benzethonium chloride kill control); conditions: incubation time: 72 h
Summary of the method: (§1)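 Compound was dispensed into 384-well plates at 5 concentrations in 10-fold steps spanning a 10,000-fold range specific to that compound. Breast cancer cell lines were added as 20 µl suspension and left for 72 h before CellTox Green fluorescence (485/520 nm) and then CellTiter-Glo luminescence, read after 10 min at room temperature. Each reported value is the normalised signal at one concentration, with 0.1 % DMSO set at 100 and a positive kill control at 0 on each plate.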

CAL-120 = experiment: as above; conditions: incubation time: 72 h
Summary of the method: as §1

CAL-148 = experiment: as above; conditions: incubation time: 72 h
Summary of the method: as §1

CAL-51 [2] = experiment: as above; conditions: incubation time: 72 h
Summary of the method: as §1

HCC1143 = experiment: as above; conditions: incubation time: 72 h
Summary of the method: as §1

HCC1599 = experiment: as above; conditions: incubation time: 72 h
Summary of the method: as §1

HCC1937 = experiment: as above; conditions: incubation time: 72 h
Summary of the method: as §1

MCF-10A = experiment: as above; conditions: incubation time: 72 h
Summary of the method: as §1

MDA-MB-468 = experiment: as above; conditions: incubation time: 72 h
Summary of the method: as §1

MFM-223 = experiment: as above; conditions: incubation time: 72 h
Summary of the method: as §1

SK-BR-3 = experiment: as above; conditions: incubation time: 72 h
Summary of the method: as §1

BT-549 [3] = conditions: 72 h
Summary of the method: (§2)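 Two sequential readouts followed a 72 h incubation of breast cancer cell lines with compound at 5 concentrations in 10-fold steps over a compound-specific 10,000-fold range: CellTox Green fluorescence (485/520 nm) for cell death, then CellTiter-Glo luminescence, after 10 min at room temperature, for viability. Each plate was normalised to 0.1 % DMSO and a positive kill control. Dose-response curves were fitted for EC50, censored at the top concentration.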

CAL-51 [4] = conditions: 72 h
Summary of the method: as §2

Row | SMILES | normalised response (BT-549 [1]) [%] | normalised response (CAL-120) [%] | normalised response (CAL-148) [%] | normalised response (CAL-51 [2]) [%] | normalised response (HCC1143) [%] | normalised response (HCC1599) [%] | normalised response (HCC1937) [%] | normalised response (MCF-10A) [%] | normalised response (MDA-MB-468) [%] | normalised response (MFM-223) [%] | normalised response (SK-BR-3) [%] | EC50, CellTiter-Glo (BT-549 [3]) [nM] | EC50, CellTiter-Glo (CAL-51 [4]) [nM]
1 | COc1c(C)cnc(Cn2cnc3c(Cl)nc(N)nc32)c1C [BIIB021] (10000 nM) | 38.2 | 45.4 | 25.1 | 11.4 | 31.5 | 47.4 | 29.4 | 13.4 | 23.8 | 35.1 | 34.3 | – | –
2 | C[C@@]1(C(=O)Nc2ccc(F)nc2)CCCN1c1nc(Nc2cc(C3CC3)n[nH]2)c2cccn2n1 (10000 nM) | 12.7 | 13.4 | 56.7 | 19.9 | 36.1 | 54.9 | 62.6 | 7.53 | 20.4 | 25.2 | 57.4 | – | –
3 | COC1=CC(c2cc3ccccc3[nH]2)=N/C1=C\c1[nH]c(C)cc1C [Obatoclax] (10000 nM) | 29.3 | 92.5 | 76.5 | 7.62 | 92 | 88.2 | 67.7 | 95.8 | 79.3 | 71.2 | 64.3 | – | –
4 | COc1ccc(C2=N[C@@H](c3ccc(Cl)cc3)[C@@H](c3ccc(Cl)cc3)N2C(=O)N2CCNC(=O)C2)c(OC(C)C)c1 [Nutlin-3] (10000 nM) | 87 | 100 | 71.4 | 50.7 | 92.9 | 98.5 | 97.6 | 89.2 | 78.9 | 93.3 | 99.1 | – | –
5 | COc1cccc2c1C(=O)c1c(O)c3c(c(O)c1C2=O)C[C@@](O)(C(C)=O)C[C@@H]3O[C@H]1C[C@H](N)[C@H](O)[C@H](C)O1 [Daunorubicin] (1000 nM) | 10.7 | 41.2 | 0.79 | 3.08 | 23.9 | 19.3 | 32.1 | 27.1 | 8.42 | 34.7 | 11.6 | – | –
6 | COc1cc(Nc2ncc(F)c(Nc3ccc4c(n3)NC(=O)C(C)(C)O4)n2)cc(OC)c1OC [Tamatinib] | – | – | – | – | – | – | – | – | – | – | – | 650 | 2310
7 | Cn1c(=O)c(F)c(Nc2ccc(I)cc2F)c2c(=O)n(C[C@@H](O)CO)cnc21 [TAK-733] (1000 nM) | 84 | 64.2 | 98.9 | 78.2 | 76.7 | 82 | 68.3 | 35.5 | 73.6 | 70.2 | 105 | – | –
8 | CC(C)C[C@H](NC(=O)[C@H](Cc1ccccc1)NC(=O)c1cnccn1)B(O)O [Bortezomib] (1000 nM) | 2.23 | 7.39 | 0.43 | 2.86 | 5.75 | 21.3 | 2.46 | 3.63 | 0.97 | 2.91 | 1.8 | – | –
9 | C[C@@H]1CCN(C(=O)CC#N)C[C@@H]1N(C)c1ncnc2[nH]ccc12 [Tofacitinib] | – | – | – | – | – | – | – | – | – | – | – | – | 52.1
10 | CS(=O)(=O)CCNCc1ccc(-c2ccc3ncnc(Nc4ccc(OCc5cccc(F)c5)c(Cl)c4)c3c2)o1 [Lapatinib] (1000 nM) | 105 | 105 | 96.3 | 120 | 95.4 | 97.1 | 101 | 43.5 | 83.6 | 99.5 | 28.5 | – | –
11 | O=c1[nH]c(=O)n([C@H]2C[C@H](O)[C@@H](CO)O2)cc1F [Floxuridine] (10000 nM) | 80.1 | 33.5 | 95.7 | 29.4 | 77.6 | 58.1 | 42 | 84.7 | 60.7 | 103 | 44.8 | – | –
12 | CS(=O)(=O)OCCCCOS(C)(=O)=O [Busulfan] (100000 nM) | 107 | 101 | 106 | 110 | 104 | 96 | 98.8 | 102 | 108 | 107 | 111 | – | –
13 | CC(=O)O[C@H]1C(=O)[C@@]2(C)[C@H]([C@H](OC(=O)c3ccccc3)[C@]3(O)C[C@H](OC(=O)[C@H](O)[C@@H](NC(=O)c4ccccc4)c4ccccc4)C(C)=C1C3(C)C)[C@]1(OC(C)=O)CO[C@@H]1C[C@@H]2O [Paclitaxel] (1000 nM) | 12.1 | 48.9 | 44.1 | 26.2 | 31.2 | 33.6 | 64.7 | 32.3 | 23.9 | 38.8 | 11.2 | – | –
14 | C#Cc1cccc(Nc2ncnc3cc(OC)c(OCCCCCCC(=O)NO)cc23)c1 [CUDC-101] (10000 nM) | 18 | 38.6 | 0.32 | 12.8 | 15.1 | 7.05 | 21 | 8.27 | 9.04 | 26.4 | 0.76 | – | –
